The source of these data is US20200378956A1, “HUMAN MICROPHYSIOLOGICAL CELL SYSTEM FOR LIVER DISEASE CONVERSTION PROV 1-18585 AND PROV 2-19154” (EMULATE, INC., priority 2018, published 2020).

Read-outs that look alike come from different tables or passages of the source.

The subject of series [1] is tri-culture of hepatocytes, liver sinusoidal endothelial cells (LSECs) and Kupffer cells. The series can be described thus: In vitro NASH model, high fat diet and LPS on tri-culture hepatocyte microchip. Type of series: cell-based. On the procedure:
For example, a tri-culture of hepatocytes, liver sinusoidal endothelial cells (LSECs) and Kupffer cells were cultured on a hepatocyte microchip and exposed to a high fat diet comprising oleic acid. Subsequently, LPS (1 μg/ml ) was added to the high fat diet media to induce a Kupffer cell-mediated inflammatory response. […] See, FIG. 20B. When oleic acid exposure is supplemented with LPS the observance of stained lipid droplets decreases. See, FIG. 20C. […] See, FIG. 20D. […] See, FIG. 21A. […] See, FIG. 22A cf FIG. 22B. […] See, FIG. 23.

The subject of series [2] is hepatocyte microchip co-culture system (e.g., Liver-Chip). The experiment in a line: Fatty acid-induced steatosis in WEN/CSC media (Example IV). Type of series: cell-based. As for the experimental part:
This example was performed on a hepatocyte microchip co-culture system (e.g., Liver-Chip). As a control condition, normal cell culture media “diet” (WEN media) was flowed through the top channel of the microchip, while a CSC 10% SFB was flowed through the bottom channel of the microchip. […] The following measurements were taken: i) Lipid drop staining with Nile Red®; ii) cholesterol quantification; iii) free fatty acid quantification; and iv) glucose quantification.

Series [3] has as its system co-culture of hepatocytes and liver sinusoidal endothelial cells (LSECs). The series can be described thus: In vitro NAFLD model, high fat diet on co-culture hepatocyte microchip. The format is cell-based. On the procedure:
For example, a co-culture of hepatocytes and liver sinusoidal endothelial cells (LSECs) cultured on a hepatocyte microchip were exposed to a high fat diet comprising of oleic acid ([…]) for up to two days. Accumulating fat droplets within these cultured hepatocytes were identified with AdipoRed® or NileRed® staining. […] See, FIG. 15. […] See, FIGS. 16A-C. Additionally, the number of lipid droplets were quantitated as well as the accompanying glucose level was determined. […] See, FIG. 18A. […] See, FIG. 18B. Photomicrographs of LSEC mitochondrial function correlate in a positive manner with twenty-four (24) hours of a high fat cell diet. See, FIG. 18C. Photomicrographs of hepatocyte mitochondrial function correlate in a positive manner after twenty-four (24) hours of a high fat cell diet. See, FIG. 18D. […] See, FIG. 19. […] The high fat diet exposure between 24-48 hours was also performed with and without the insulin-secretion agonist, Exendin. See, FIG. 60A. […] See, FIGS. 60B, 62C, 17A-B.

Series [4] relates to hepatic stellate cells. The series can be described thus: Fibrosis development in the Liver-Chip. Type of series: cell-based. The settings on record: FIG. 46B.
Series [5] has as its system hepatocytes. The settings on record: both the hepatocyte channel and the LSEC/Kupffer-cell channel.
Series [6] concerns tri-culture of hepatocytes and Kupffer cells. As to conditions: for cholesterol release: ethanol 0.04-0.16% BAC.
In series [7] the test system is Liver-Chip hepatocytes. The series can be described thus: Ethanol / LPS dosing Liver-Chip study (FIG. 81-83).
Method: Oxidative stress was measured by staining of ROS-positive hepatocytes with MitoSOX™ Red (a fluorogenic dye specifically targeted to mitochondria in live cells. Oxidation of MitoSOX™ Red reagent produces red fluorescence.
Oxidation (red) is shown in the lower row stained with MitoSOX™ Red.
Series [8] relates to 2D models. The settings on record: i.e., ~0.4%; cited from earlier work.
Series [9] deals with sodium/bile acid cotransporter. The experiment in a line: Bosentan effect on co-transporter gene expression. Type of series: cell-based. As to conditions: after three (3) days of culture. The source says:
FIG. 50A-B presents exemplary data showing the effect of bosentan on co-transporter gene expression. • FIG. 50A: Sodium/bile co-transporter. • FIG. 50B: Bile Salt Export Pump (BSEP, ABCB11) co-transporter.
(§1) These microfluidic systems also enable high-resolution, real-time imaging coupled with a capability for in vitro analysis of biochemical, genetic and metabolic activities, all in the functional context of living tissue. This technology can be used to evaluate tissue development, organ physiology and/or disease etiology. In the context of drug discovery, including safety and efficacy, this technology is especially valuable for the study of molecular mechanisms of action, prioritization of lead candidates, toxicity testing and biomarker identification. Bhatia et al., “Microfluidic organs-on-chips” Nature Biotechnology 2014, 32(8):760-772. […] See, FIGS. 54A-B.

Series [10] relates to Human hepatocyte conventional plate cell culture. The series can be described thus: Bosentan ALT release, conventional plate cell culture. The format is cell-based. As to conditions: various concentrations of bosentan.
Source text: (§2) FIG. 49A-B presents exemplary data showing the release of alanine transaminase (ALT) in response to various concentrations of bosentan. • FIG. 49A: Human hepatocyte microchip culture. • FIG. 49B: Human hepatocyte conventional plate cell culture.
as §1

Series [11] concerns Bile Salt Export Pump (BSEP, ABCB11). The experiment in a line: Bosentan effect on co-transporter gene expression. The format is cell-based. The settings on record: after three (3) days of culture.
Series [12] relates to human hepatocyte microchips. The experiment in a line: Bosentan ALT release, hepatocyte microchip culture. The format is cell-based. As to conditions: various concentrations of bosentan.
Source text: as §2, §1

Series [13] relates to co-culture hepatocyte microchip. The series can be described thus: Fructose-induced liver injury on co-culture hepatocyte microchip. Type of series: cell-based. As for the experimental part:
The cell culture media effluent was analyzed for triglycerides, glycogen and glucose from both the top and bottom channels of the microchannel. See, Example 1. Cell imaging analysis of lipid droplet accumulation was performed with AdipoRed® and visualized with brightfield imaging.
The hepatocyte cells and endothelial cells were seeded and incubated as a co-culture in a hepatocyte microchip and samples were collected a specific time points. See, FIG. 32.
The specific media compositions were as follows: • Liver culture media: • Top Channel: DMEM (LG) 0% FBS, NEAA 1:200, ITSG 1:10,000, Vitamin C & dexamethasone
To each media, either a 1:1 glucose:fructose ratio (low fructose) or a 0.7:1.4 glucose:fructose ratio (high fructose) is added.

The subject of series [14] is quadruple co-culture of hepatocytes, Kupffer cells, LSEC cells and Stellate cells. The series can be described thus: Quadruple co-culture cell activation. Type of series: cell-based. The settings on record: FIG. 13B.
[15] abbreviates: oleic acid (0.1 to 0.5 μM) for up to two days.
Setting [16] is: liver culture media, 48 hours, low or high fructose.

Turning to `CCCCCCCC/C=C\CCCCCCCC(=O)O` [oleic acid], the “lipid droplet accumulation, cells proximal to channel inlet compared to channel outlet” value in series [1] (48 hours of high fat diet of oleic acid) is reported as “higher density of lipid droplet accumulation”. For the same molecule, the “observable fat droplets in the hepatocytes” value in series [1] (oleic acid only vs control) is given as “significant increase in observable fat droplets”. For the same molecule, in [2] (1 μM Oleic acid), the LSEC morphology entry is listed as “alterations in morphology”. Moreover, the “hepatocyte lipid droplet accumulation over time” value in series [2] (1 μM Oleic acid, 0, 40 and 64 hours) was “progressive accumulation”. For the same molecule, in series [2] (1 μM Oleic acid, forty hours), the “hepatocyte free fatty acids” value is recorded as “shown to increase”. The “lipid droplets in hepatocytes” value in series [2] (high oleic acid concentration media, FIG. 7A) was “Increased concentration of lipid droplets”. Moreover, the LSEC morphological features entry in series [2] (oleic acid, 5 μM, 2 day exposure, FIG. 7B) is “Morphological features indicative of injury/stress exposure”. For the same molecule, in series [3] (high fat diet), the cholesterol concentration entry is given as “observed to increase”, the “free fatty acids concentration” value is recorded as “observed to increase” and the “number of nuclei (hepatocyte proliferation or polyploidy)” value is on record as “increase in the number of nuclei”. Further, in series [3] (setting [15]), the “LSEC morphology by bright field imaging” value is “developed an injury morphology” and the “lipid droplets accumulation inside co-cultured hepatocytes” value is “significant increase of lipid droplets accumulation”. Besides, in [3] (oleic acid (0.1 to 0.5 μM), 48 hours), the extracellular glucose concentration result was “significantly higher”. Also, in [3] (two day high fat diet), the “cell viability (mitochondrial function)” value is “did not result in any significant reduction in cell viability” and the “oxidative stress markers, reactive oxygen species (ROS)” value is listed as “increase in reactive oxygen species”.

Regarding “TGF-α: factor printed as activating hepatic stellate cells in FIG. 46B”, the “hepatic stellate cell activation” value in [4] is “activation of hepatic stellate cells”.

Consider `Nc1c2c(nc3ccccc13)CCCC2` [Tacrine, tacrine], for which, in series [5], the IL-1-α entry is reported as “accumulation”, the IL-1beta entry is listed as “accumulation” and the IL-6 entry was “accumulation”.

Turning to `CCO` [ethanol], the lipid droplet accumulation result in series [6] (0.16% ethanol, 120 hours of recovery (Day 7)) is given as “statistically significant as compared to vehicle control”. In addition, in series [6] (after 48 h of recovery), the cholesterol levels result is on record as “back to normal”. Also, in [6] (24 h), the cholesterol release result is on record as “increased”. In series [6] (48 h), the cholesterol release entry is reported as “intensified”. Also, in series [7], the “ethanol concentration at which modifications in glucose release levels were observed” value is “above 0.32%”. Besides, the alcohol-induced steatosis result in series [7] (after ethanol-free recovery) is listed as “reverted”. Moreover, in series [7] (ethanol at physiologically relevant BAC), the “cholesterol release (effluent)” value is “increase of cholesterol release”. In series [7] (ethanol dosing), the cholesterol storage result is “increased cholesterol and glycogen storage”; the glycogen storage result is “increased cholesterol and glycogen storage”. The “hepatocyte viability (albumin as viability marker)” value in [7] (ethanol dosing condition) is listed as “sublethal”. In series [8], the “ethanol concentration significantly decreasing viability” value is “greater than 100 mM”.

Consider `COc1ccccc1Oc1c(NS(=O)(=O)c2ccc(C(C)(C)C)cc2)nc(-c2ncccn2)nc1OCCO` [bosentan], for which, in series [9], the “sodium/bile acid cotransporter expression levels” value is “reduce sodium/bile acid cotransporter and BSEP transporter expression levels in a dose-dependent fashion”. Also, the “secreted alanine transaminase (ALT) levels” value in [10] is given as “lack of response”; in series [12] it was “dose dependent increment”. Also, the “BSEP transporter expression levels” value in series [11] was “reduce sodium/bile acid cotransporter and BSEP transporter expression levels in a dose-dependent fashion”.

For the molecule `O=C(CO)[C@@H](O)[C@H](O)[C@H](O)CO` [fructose], the extracellular glycogen levels entry was “No significant differences” in series [13] (24 or 72 hours) and “dose-dependent decrease” in [13] (low or high fructose, liver media or intestinal effluent media, 48 hours). The triglyceride levels result in series [13] (24 or 72 hours, or intestinal effluent media) is listed as “No significant differences”; in series [13] (low or high fructose, liver media, 48 hours), “dose-dependent increase”. Also, the “glucose in microchannel effluent” value is listed as “observed to increase” in series [13] (48 h, fructose media) and “no difference observed” in series [13] (intestinal effluent culture media, with or without fructose). Besides, the hepatocyte cell number entry in [13] (setting [16]) is on record as “decreased hepatocyte cell number”. Moreover, the hepatocyte cell size entry in series [13] (setting [16]) is “increased hepatocyte cell size”. The hepatocyte viability entry in series [13] (setting [16]) was “no effect on hepatocyte viability”. Also, the cholesterol levels result in series [13] (liver media or intestinal effluent media, 24, 48 or 72 hours) was “failed to significantly increase cholesterol levels”.

As to “TGF-β: growth factor used for stellate cell activation”, the “stellate cell activation (α-SMA staining)” value in [14] is “Stellate cell activation”.
